Data as given in patent US20140066410A1, “INHIBITORS OF BROMODOMAINS AS MODULATORS OF GENE EXPRESSION” (ICAHN SCHOOL OF MEDICINE AT MOUNT SINAI, priority 2011, published 2014).
Entries after “also recorded” stand apart in the source; their conditions may differ.

How the values were obtained:
CBP BRD = CBP BRD (Homo sapiens, UniProt Q92793); assay: Bromodomain binding affinity (tryptophan fluorescence binding assay); conditions: over PCAF, BRD41, BAZ1B and BAZ2B
Method: Monitoring change of intrinsic tryptophan fluorescence of a protein induced by ligand binding can be used to determine ligand binding affinity (KD). This assay was used to assess ligand binding to the CBP BRD and ischemin binding to the BRDs from other transcription proteins as follows. The chemical ligands were prepared at 500-850 μM in the PBS buffer. Their serial dilutions by a factor of 1.5 in a 384-wells black plate were carried out using a Tecan EVO200 liquid handler down to a concentration of 0.5 nM. Protein was added to the compounds to a final concentration in each well of 5 μM. Tryptophan fluorescence of the protein was measured (with excitation set at 280 nm, emission at 350 nm) on a Tecan Safire2 reader. Inner filter correction was introduced to take into account the possible intrinsic fluorescence of the compound. […] KD was calculated based on the curve fitting.

p53 [1] = assay: p21 luciferase assay (p53 inhibition) in U20S cells upon doxorubicin; type: cell-based
Method: U20S Cells were transfected with p21 luciferase (1 μg) and renilla luciferase (100 ng) vectors in 6 well plate format using Fugene 6 (Roche). Briefly, total of 1.1 micrograms of vector was incubated with […] of Fugene 6 reagent for 30 min. After 3-4 hours of transfection, cell were treated with compounds for overnight, and then exposed to 300 nanogram of doxorubicin for next 24 hours. In these experiments, DMSO, transfected cells with empty vector and cell without doxorubicin were used as controls. DMSO concentration is maintained at 0.01%. Transfected cells with doxorubicin treatment were used as positive control. The luciferase activity was estimated by following the manufacturer's instruction (Promega) in a luminometer. […] The inhibitory activity (IC50) of a small molecule on p21 luciferase activity was obtained from the average of three biological replicates using PRISM software.

U20S cells = assay: BRDU incorporation / cell cycle analysis; type: cell-based
Method: BRDU incorporation assay for cell cycle evaluation was performed in 96 well plates using calorimetric based kit from Calbiochem (Cat# QiA58). Hundred microliter of 1×10^5/ml cells were plated in DMEM media (Mediatech) with 10% fetal bovine serum (FBS). After 12 hours cells were treated with compounds ischemin and MS 119 (50 μM) with or without doxorubicin treatment (5 μM). The controls were DMSO and untreated cells. BRDU was added for 24 hours treatment. After 24 hours cells were fixed and treated with anti-BRDU antibody. After washings, the wells were incubated with peroxidase. After final wash, the color was developed using TMB as substrate and the reaction was stopped with stop solution and optical density was estimated at 450 nm.
DNA damage induced by doxorubicin leads to p53 stimulated cellular responses including cell cycle arrest, damage repair, and apoptosis. To determine the effect of ischemin on dividing U20S cells, U20S cells were treated with 5-bromo-2-deoxyuridine (BRDU) and the incorporated BRDU during in DNA synthesis was measured using an ELISA assay.

p53 [2] = assay: Western blot of doxorubicin-treated U20S cells; type: cell-based
Method: U20S cells were harvested cells and lysed in lysis buffer (20 mM Tris (pH 8.0), 150 mM NaCl, 1 mM EGTA, 1% Triton X-100, and 50 mM NaF) containing protease inhibitor cocktail (Sigma). The cells were sonicated and spun down at 14,000 rpm for 30 min at 4° C. After protein estimation, 30-50 micrograms of lysates were subjected to SDS-PAGE, transferred onto nitrocellulose membranes, blocked with 5% milk/PBS and blotted with a primary antibody. Horse radish peroxidase-labeled secondary antibodies (goat anti-Mouse or anti-Rabbit) were added for 60 min at room temperature, and the blots were washed with TBS (20 mM Tris, 150 mM Nacl, and 0.05% tween −20) and subjected to autoradiography after development of reaction by ECL (GE health care).
The biochemical effects of ischemin on p53 stability and function as transcription factor was examined. U20S cells were incubated in the presence of doxorubicin with or without ischemin at concentration of 50 or 100 μM for 24 hours. Subsequently, cellular proteins were subjected to western blot analysis (as described above).
As a transcription factor, p53 ability to activate gene expression is also dependent upon chromatin modifications. Since CBP acetylates both histones and p53, the possible changes of epigenetic marks on p53 and global histones in presence of ischemin was evaluated.

p53 binding to CBP = molecular target: T1, p53 binding to CBP (Homo sapiens, UniProt Q92793); assay: HA-CBP and Flag-p53 pull-down assay in HEK 293T cells; type: cell-based; conditions: doxorubicin treatment
T1 construct: expressed in transfected cells; host or cells: HEK 293T
Method: HA-CBP and Flag-p53 were transfected into human embryonic kidney (HEK) 293T cells with recommended amount of Fugene 6 (Roche). After transfection, the HA-CBP and Flag-p53 co-transfected cells were treated with ischemin in the presence or absence of doxorubicin. To test the inhibitory potential of ischemin against CBP and p53 association, CBP was first immuno-precipitated by pulling-down with HA-agarose beads (Sigma) and its association with p53 was then determined with western blot using anti-Flag antibody (Sigma).
It was also investigated whether ischemin down-regulates p53 by blocking p53 binding to CBP. Haemaglutinin-tagged CBP(HA-CBP) and Flag-tagged p53 (Flag-p53) was overexpressed in human embryonic kidney (HEK) 293T cells.

p53 [3] = assay: Immunoblot of doxorubicin-treated primary neonatal rat cardiomyocytes; type: cell-based
Description: FIG. 4. Ischemin functions a cellular protective agent against myocardial ischemic stress. (A) TUNEL assay showing ischemin inhibition of doxorubicin-induced apoptosis in rat neonatal cardiomyocytes. (B) Evaluation of ischemin effects in U20S cells and cardiomyocytes. The immunoblots show down-regulation of doxorubicin-induced activated p53 in both cell types in the presence of ischemin, while levels of H2XS139p remained the same. (C) Inhibition of doxorubicin-induced caspase 3/7 activation in cardiomyocytes by ischemin.
(§1) The latter argues that ATM is active in presence of ischemin, which is consistent with our analysis using Western blots (FIG. 2B).

CBP/p300 = assay: Fluorescence-based lysine acetyltransferase assay with histone H3 peptide substrate; type: biochemical; conditions: data not shown
Description: as §1

[4] = ischemin 50 or 100 μM, 24 hours, U20S cells
[5] = nuclear extracts from U20S cells

T1 sequence (Q92793 whole entry): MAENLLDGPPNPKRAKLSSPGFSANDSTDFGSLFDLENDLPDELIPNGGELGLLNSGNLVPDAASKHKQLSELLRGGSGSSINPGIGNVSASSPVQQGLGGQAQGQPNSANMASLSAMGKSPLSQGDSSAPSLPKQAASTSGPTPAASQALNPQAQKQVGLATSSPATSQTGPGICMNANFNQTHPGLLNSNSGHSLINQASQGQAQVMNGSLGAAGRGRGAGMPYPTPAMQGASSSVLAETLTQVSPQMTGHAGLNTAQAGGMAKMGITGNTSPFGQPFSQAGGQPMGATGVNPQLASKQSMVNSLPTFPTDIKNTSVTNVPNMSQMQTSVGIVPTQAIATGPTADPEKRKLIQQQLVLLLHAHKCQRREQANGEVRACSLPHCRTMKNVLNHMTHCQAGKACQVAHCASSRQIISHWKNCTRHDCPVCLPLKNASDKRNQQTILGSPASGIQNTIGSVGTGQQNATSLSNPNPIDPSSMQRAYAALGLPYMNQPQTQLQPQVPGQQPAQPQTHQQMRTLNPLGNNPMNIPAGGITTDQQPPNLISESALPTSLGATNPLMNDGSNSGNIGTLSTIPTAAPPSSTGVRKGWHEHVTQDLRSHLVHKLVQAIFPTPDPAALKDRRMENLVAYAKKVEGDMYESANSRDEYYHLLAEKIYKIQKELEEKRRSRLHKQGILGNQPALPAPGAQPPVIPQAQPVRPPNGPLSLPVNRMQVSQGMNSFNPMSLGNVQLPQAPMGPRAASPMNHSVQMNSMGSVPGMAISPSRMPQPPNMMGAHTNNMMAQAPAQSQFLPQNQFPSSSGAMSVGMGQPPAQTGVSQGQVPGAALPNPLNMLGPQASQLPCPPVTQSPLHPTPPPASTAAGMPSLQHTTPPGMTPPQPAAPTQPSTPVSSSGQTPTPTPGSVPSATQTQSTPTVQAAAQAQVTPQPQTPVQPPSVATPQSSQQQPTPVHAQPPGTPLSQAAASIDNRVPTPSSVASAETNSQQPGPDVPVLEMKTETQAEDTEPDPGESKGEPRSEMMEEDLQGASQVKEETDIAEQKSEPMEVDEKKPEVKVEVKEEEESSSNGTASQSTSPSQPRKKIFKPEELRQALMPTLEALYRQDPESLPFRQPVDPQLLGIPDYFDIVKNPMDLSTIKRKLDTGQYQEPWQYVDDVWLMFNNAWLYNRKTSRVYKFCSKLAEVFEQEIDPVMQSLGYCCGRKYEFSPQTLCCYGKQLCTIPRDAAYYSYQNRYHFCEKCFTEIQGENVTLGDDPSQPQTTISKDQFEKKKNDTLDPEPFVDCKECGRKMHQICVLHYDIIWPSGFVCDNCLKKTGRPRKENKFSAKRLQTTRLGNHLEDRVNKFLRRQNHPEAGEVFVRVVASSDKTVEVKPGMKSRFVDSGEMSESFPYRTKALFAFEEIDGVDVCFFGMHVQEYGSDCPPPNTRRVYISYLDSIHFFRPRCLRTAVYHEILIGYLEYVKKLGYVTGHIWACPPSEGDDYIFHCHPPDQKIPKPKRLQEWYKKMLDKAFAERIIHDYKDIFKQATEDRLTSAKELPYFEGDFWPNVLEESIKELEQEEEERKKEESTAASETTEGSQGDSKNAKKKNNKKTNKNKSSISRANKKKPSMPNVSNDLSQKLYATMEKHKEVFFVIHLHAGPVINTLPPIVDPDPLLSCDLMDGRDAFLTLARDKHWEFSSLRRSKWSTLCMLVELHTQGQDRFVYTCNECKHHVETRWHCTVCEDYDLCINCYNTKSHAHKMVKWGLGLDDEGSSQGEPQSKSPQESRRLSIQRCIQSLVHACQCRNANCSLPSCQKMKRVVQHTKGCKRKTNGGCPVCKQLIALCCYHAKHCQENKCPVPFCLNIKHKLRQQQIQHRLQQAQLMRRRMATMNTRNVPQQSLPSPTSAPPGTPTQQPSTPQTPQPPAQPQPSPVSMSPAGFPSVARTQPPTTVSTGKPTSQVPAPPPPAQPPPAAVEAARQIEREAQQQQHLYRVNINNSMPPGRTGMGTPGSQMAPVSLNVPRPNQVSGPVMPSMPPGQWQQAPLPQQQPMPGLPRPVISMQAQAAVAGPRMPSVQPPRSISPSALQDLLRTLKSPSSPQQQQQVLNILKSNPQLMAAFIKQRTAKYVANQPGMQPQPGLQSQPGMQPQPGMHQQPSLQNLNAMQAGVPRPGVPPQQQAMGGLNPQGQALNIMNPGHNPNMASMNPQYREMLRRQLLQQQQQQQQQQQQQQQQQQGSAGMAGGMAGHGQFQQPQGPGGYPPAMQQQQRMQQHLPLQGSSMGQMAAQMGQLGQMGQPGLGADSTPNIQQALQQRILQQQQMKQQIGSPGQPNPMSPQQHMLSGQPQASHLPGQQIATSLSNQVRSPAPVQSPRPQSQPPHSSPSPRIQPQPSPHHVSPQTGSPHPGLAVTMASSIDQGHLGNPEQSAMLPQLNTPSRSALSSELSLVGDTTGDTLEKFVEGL
Sequence of CBP BRD (Q92793 1085-1192 limits assumed): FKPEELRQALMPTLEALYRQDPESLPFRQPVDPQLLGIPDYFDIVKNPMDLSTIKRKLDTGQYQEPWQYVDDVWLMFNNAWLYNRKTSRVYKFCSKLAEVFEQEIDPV

Structure (SMILES): Cc1cc(/N=N/c2cc(S(=O)(=O)O)c(C)cc2C)c(N)cc1O [Ischemin/MS120, 5-(2-amino-4-hydroxy-5-methylphenylazo)-2,4-dimethylbenzenesulfonic acid]
- Selectivity for the CBP BRD over other human BRDs (CBP BRD): up to five-fold selectivity
- Inhibition of p21 luciferase activity (p53 [1]; U20S cells, FIG. 1A): Dose-dependent inhibition
- Ability to inhibit p53-dependent p21 luciferase activity / p21 expression (SAR, words) (p53 [1]; compared with lead / ortho-methyl analogs): nearly completely suppresses
- inhibition at 50 µM (p53 [1]; compounds at 50 μM, doxorubicin-treated U20S cells): 104%
- Toxicity to U20S cells (U20S cells; 50 μM): not toxic
- Prevention of doxorubicin-induced cell cycle arrest (decrease of BRDU incorporation) (U20S cells; compound 50 μM, doxorubicin 5 μM, U20S cells): almost completely prevented; also recorded: prevents a doxorubicin-induced decrease of BRDU incorporation
- Level or functional phosphorylation state of ATM and CHK1 (p53 [2]; U20S cells, doxorubicin): did not affect
- Expression of p53 target genes p21, PUMA and 14-3-3s induced by doxorubicin (p53 [2]; [4]): significantly decreased
- Levels of p53 protein, p53S15p and p53K382ac induced by doxorubicin (p53 [2]; [4]): marked reduction
- H3 acetylation at Lys9 (p53 [2]; [5]): decrease
- Histone H3 phosphorylation at Ser10 (p53 [2]; [5]): increase
- Inhibition of p53 binding to CBP (p53 binding to CBP): inhibiting in a dose-dependent manner
- Doxorubicin induced p53 activation (p53 [3]): able to inhibit
- H2AX phosphorylation at Ser139 (p53 [3]): did not alter
- Direct inhibition of lysine acetyltransferase activity of CBP/p300 (CBP/p300): ruled out
